Experimental data from patent US10435396B2, “2-substituted indazoles, methods for producing same, pharmaceutical preparations that contain same, and use of same to produce drugs” (Bayer Pharma Aktiengesellschaft, priority 2016, dated 2019).

The molecules below were run on human PBMCs (assay: In vitro LPS-induced cytokine production in human PBMCs). Conditions: 0.1 μg/ml LPS, 24 hours.
Format: cell-based
Procedure: In Vitro LPS (Lipopolysaccharide)-Induced Cytokine Production in Human PBMCs (Peripheral Blood Mononuclear Cells)
The effect of the inventive compounds of the general formula (I) on induced cytokine production in human PBMCs was examined. Cytokine production was induced here by LPS, a TLR4 ligand, which leads to activation of the IRAK4-mediated signal path.
The human PBMCs were obtained from anti-coagulated human whole blood. To this end, 15 ml of Ficoll-Paque (Biochrom, Cat. No. L6115) were initially charged in Leucosep tubes and 20 ml of human blood were added. After centrifugation of the blood at 800 g for 15 min at room temperature, the plasma including the platelets was removed and discarded. The PBMCs were transferred into centrifugation tubes and made up with PBS (phosphate-buffered saline) (Gibco, Cat. No. 14190). The cell suspension was centrifuged at room temperature at 250 g for 10 min and the supernatant was discarded. The PBMCs were resuspended in complete medium (RPMI 1640, without L-glutamine (PAA, Cat. No. E15-039), 10% FCS; 50 U/ml penicillin, 50 μg/ml streptomycin (PAA, Cat. No. P11-010) and 1% L-glutamine (Sigma, Cat. No. G7513)).
The assay was also carried out in complete medium. The PBMCs were sown in 96-well plates at a cell density of 2.5×10^5 cells/well. The compounds according to the invention were subjected to serial dilution in a constant volume of 100% DMSO and used in the assay at 8 different concentrations in the range from 10 μM to 3 nM such that the final DMSO concentration was 0.4% DMSO. Prior to the actual stimulation, the cells were then pre-incubated therewith for 30 min. […] Cell viability was determined using the CellTiter-Glo luminescent assay (Promega, Cat. No. G7571 (G755/G756A)) in accordance with the manufacturer's instructions. The amount of secreted TNF-α in the cell culture supernatant was determined using the Human ProInflammatory 9-Plex Tissue Culture Kit (MSD, Cat. No. K15007B) in accordance with the instructions of the manufacturer. […]

SMILES | activity (secreted TNF-α, LPS-induced cytokine production in human PBMCs)
CC(C)(O)c1cc2nn(C3CCS(=O)(=O)CC3)cc2cc1NC(=O)c1cccc(C(F)(F)F)n1 [Example 44, N-[2-(1,1-Dioxidotetrahydro-2H-thiopyran-4-yl)-6-(2-hydroxypropan-2-yl)-2H-indazol-5-yl]-6-(trifluoromethyl)pyridine-2-carboxamide] | ≤ 1 µM
CC(C)(O)c1cc2nn(C3CCNCC3)cc2cc1NC(=O)c1cccc(C(F)(F)F)n1 [Example 46, N-[6-(2-Hydroxypropan-2-yl)-2-(piperidin-4-yl)-2H-indazol-5-yl]-6-(trifluoromethyl)pyridine-2-carboxamide] | ≤ 1 µM

Each molecule was assayed against human IRAK4 (Homo sapiens (Human), UniProt Q9NWZ3) (assay: IRAK4 kinase assay (IRAK4 TR-FRET assay)). Conditions: 1 mM ATP.
human IRAK4, sequence (Q9NWZ3 whole entry): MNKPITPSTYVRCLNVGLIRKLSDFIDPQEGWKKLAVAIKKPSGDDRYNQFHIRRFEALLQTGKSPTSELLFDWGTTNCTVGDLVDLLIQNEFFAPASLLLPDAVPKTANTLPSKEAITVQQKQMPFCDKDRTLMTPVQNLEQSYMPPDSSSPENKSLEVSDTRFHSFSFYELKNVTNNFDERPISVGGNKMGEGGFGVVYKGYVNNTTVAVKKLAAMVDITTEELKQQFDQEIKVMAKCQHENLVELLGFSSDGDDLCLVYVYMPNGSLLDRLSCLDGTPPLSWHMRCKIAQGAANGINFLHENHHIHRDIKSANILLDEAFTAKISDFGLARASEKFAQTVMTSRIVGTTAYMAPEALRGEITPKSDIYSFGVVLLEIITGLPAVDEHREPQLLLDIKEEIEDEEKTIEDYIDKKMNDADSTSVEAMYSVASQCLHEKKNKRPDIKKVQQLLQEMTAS
Format: biochemical
In short: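 GST-human IRAK4 (insect-cell expressed, ~0.2 nM) was prebound 15 min with compound, then reacted 45 min at 22° C with 1 mM ATP and 0.5 μM biotinylated peptide in HEPES pH 7.5. Phosphopeptide detected by TR-FRET (665/620 nm). IC50 from 4-parameter fit over 11 concentrations, 20 μM-0.073 nM.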

IC50 | SMILES
1 nM | COc1cc2nn(C3CCN(CCO)CC3)cc2cc1NC(=O)c1cccc(C(F)(F)F)n1 [Example 13, N-{2-[1-(2-Hydroxyethyl)piperidin-4-yl]-6-methoxy-2H-indazol-5-yl}-6-(trifluoromethyl)pyridine-2-carboxamide]
1 nM | COc1cc2nn(C3CCNCC3)cc2cc1NC(=O)c1cccc(C(F)(F)F)n1 [Example 2, N-[6-Methoxy-2-(piperidin-4-yl)-2H-indazol-5-yl]-6-(trifluoromethyl)pyridine-2-carboxamide]
4 nM | COc1cc2nn(C3CCS(=N)(=O)CC3)cc2cc1NC(=O)c1cccc(C(F)(F)F)n1 (single isomer, unassigned) [Example 20, N-[2-(1-Imino-1-oxidohexahydro-1λ^4-thiopyran-4-yl)-6-methoxy-2H-indazol-5-yl]-6-(trifluoromethyl)pyridine-2-carboxamide]
3 nM | COc1cc2nn(C3CCS(=N)(=O)CC3)cc2cc1NC(=O)c1cccc(C(F)(F)F)n1 (single isomer, unassigned) [Example 21, N-[2-(1-Imino-1-oxidohexahydro-1λ^4-thiopyran-4-yl)-6-methoxy-2H-indazol-5-yl]-6-(trifluoromethyl)pyridine-2-carboxamide]
1 nM | COc1cc2nn(C3CCN(C)CC3)cc2cc1NC(=O)c1cccc(C(F)(F)F)n1 [Example 4, N-[6-Methoxy-2-(1-methylpiperidin-4-yl)-2H-indazol-5-yl]-6-(trifluoromethyl)pyridine-2-carboxamide]
2 nM | COc1cc2nn(C3CCN(C(=O)CO)CC3)cc2cc1NC(=O)c1cccc(C(F)(F)F)n1 [Example 5, N-[2-(1-Glycoloylpiperidin-4-yl)-6-methoxy-2H-indazol-5-yl]-6-(trifluoromethyl)pyridine-2-carboxamide]
2 nM | COc1cc2nn(C3CCOCC3)cc2cc1NC(=O)c1cccc(N2CCOCC2)n1 [Example 24, N-[6-Methoxy-2-(tetrahydro-2H-pyran-4-yl)-2H-indazol-5-yl]-6-(morpholin-4-yl)pyridine-2-carboxamide]
3 nM | COc1cc2nn(C3CCOCC3)cc2cc1NC(=O)c1cccc(C(F)(F)F)n1 [Example 1, N-[6-Methoxy-2-(tetrahydro-2H-pyran-4-yl)-2H-indazol-5-yl]-6-(trifluoromethyl)pyridine-2-carboxamide]
1 nM | COc1cc2nn(C3CCOCC3)cc2cc1NC(=O)c1cccc(C(F)F)n1 [Example 23, 6-(Difluoromethyl)-N-[6-methoxy-2-(tetrahydro-2H-pyran-4-yl)-2H-indazol-5-yl]pyridine-2-carboxamide]
3 nM | COc1cc2nn(C3CCN(C4COC4)CC3)cc2cc1NC(=O)c1cccc(C(F)(F)F)n1 [Example 10, N-{6-Methoxy-2-[1-(oxetan-3-yl)piperidin-4-yl]-2H-indazol-5-yl}-6-(trifluoromethyl)pyridine-2-carboxamide]
2 nM | COc1cc2nn(C3CC[S+]([O-])CC3)cc2cc1NC(=O)c1cccc(C(F)(F)F)n1 (racemic) [Example 12, rac-N-[6-Methoxy-2-(1-oxidotetrahydro-2H-thiopyran-4-yl)-2H-indazol-5-yl]-6-(trifluoromethyl)pyridine-2-carboxamide]
3 nM | COc1cc2nn(C3CCOCC3)cc2cc1NC(=O)c1cccc(C(C)(C)O)n1 [Example 28, 6-(2-Hydroxypropan-2-yl)-N-[6-methoxy-2-(tetrahydro-2H-pyran-4-yl)-2H-indazol-5-yl]pyridine-2-carboxamide]
5 nM | CC(C)(O)c1cc2nn(C3CCS(=O)(=O)CC3)cc2cc1NC(=O)c1cccc(C(F)(F)F)n1 [Example 44, N-[2-(1,1-Dioxidotetrahydro-2H-thiopyran-4-yl)-6-(2-hydroxypropan-2-yl)-2H-indazol-5-yl]-6-(trifluoromethyl)pyridine-2-carboxamide]
2 nM | COc1cc2nn([C@@H]3C[C@@H]4C[C@H]3CN4C)cc2cc1NC(=O)c1cccc(C(F)(F)F)n1 (relative stereo) [Example 18, rel-N-{6-Methoxy-2-[(1S,4S,5R)-2-methyl-2-azabicyclo[2.2.1]hept-5-yl]-2H-indazol-5-yl}-6-(trifluoromethyl)pyridine-2-carboxamide]
3 nM | CC(C)(O)c1cc2nn(C3CCNCC3)cc2cc1NC(=O)c1cccc(C(F)(F)F)n1 [Example 46, N-[6-(2-Hydroxypropan-2-yl)-2-(piperidin-4-yl)-2H-indazol-5-yl]-6-(trifluoromethyl)pyridine-2-carboxamide]
